Counter-ions that a name gives are not always drawn.

Data set [1] in a line: Plasma hydrolysis of nalbuphine prodrug, rat plasma.
A short description of data set [2]: Plasma hydrolysis of nalbuphine prodrug, dog plasma.
The nature of data set [3]: Plasma hydrolysis of nalbuphine prodrug, human plasma.
A short description of data set [4]: Plasma hydrolysis of nalbuphine prodrug, monkey plasma.
Data set [5] in a line: Oral nalbuphine bioavailability, human.
Data set [6] can be described thus: Oral nalbuphine bioavailability, monkey. As to conditions: 4 mg nalbuphine/kg, % dose, two values, 4 mg/kg.
Data set [7] can be described thus: Oral 3-hydroxymorphinan bioavailability (nalbuphine), rat. As to conditions: plasma, 20 mg/kg.
Data set [8] in a line: Oral 3-hydroxymorphinan bioavailability, dog (drug and prodrugs). As to conditions: 4 mg/kg.
A short description of data set [9]: Oral 3-hydroxymorphinan bioavailability, species not printed at the place. As to conditions: 10 mg naloxone/kg, species not given.

`CC(=O)Oc1ccccc1C(=O)Oc1ccc2c3c1O[C@H]1[C@@H](O)CC[C@@]4(O)[C@@H](C2)N(CC2CCC2)CC[C@]314` [Example 1, Nalbuphine-3-(acetylsalicylate)]: the half-life at 0.28 µM was 0.2 h in data set [1], 2.8 h in data set [2], 6.2 h in data set [3] and 0.6 h in data set [4].
As for `Nc1ccccc1C(=O)Oc1ccc2c3c1O[C@H]1[C@@H](O)CC[C@@]4(O)[C@@H](C2)N(CC2CCC2)CC[C@]314` [Example 2, Nalbuphine-3-anthranilate hydrochloride], the half-life at 0.28 µM in [1] was 1.5 h; in data set [2], 14.6 h; in data set [3] it was 45 h; in data set [4], 3.3 h.
Take `Oc1ccc2c3c1O[C@H]1[C@@H](O)CC[C@@]4(O)[C@@H](C2)N(CC2CCC2)CC[C@]314` [nalbuphine, (-)-17-(Cyclobutylmethyl)-4,5α-epoxymorphinan-3,6α,14-triol]: the “Oral nalbuphine bioavailability (F)” value is on record as 14% in [5] (45 mg tablet or solution, % dose); 1.6% in data set [6]; 5.4 ± 0.9% in data set [8] (oral, 4 mg nalbuphine/kg, % dose, mean ± SE). Further, the bioavailability in [5] (plasma, po, 45 mg) came out at 14%; in [6] (plasma, po, Oral nalbuphine bioavailability (F)), 0.9%; in [7], 2.7 ± 0.4%; in data set [8] (plasma, po), 5.4%.
Regarding `C=CCN1CC[C@]23c4c5ccc(O)c4O[C@H]2C(=O)CC[C@@]3(O)[C@H]1C5` [naloxone HCl, (-)-17-Allyl-4,5α-epoxy-3,14-dihydroxymorphinan-6-one], the “Plasma naloxone concentrations after oral naloxone HCl” value in data set [9] is “close to the assay detection limits and as such were erratic”.

The term half-life denotes the time in which the quantity being followed falls by half. As usually defined, the bioavailability is dose-corrected exposure relative to a reference, in per cent.
